What all share (format): cell-based
One assay deals with T1, adenosine 3 (Homo sapiens, UniProt P0DMS8).
T1 sequence (P0DMS8 1-318): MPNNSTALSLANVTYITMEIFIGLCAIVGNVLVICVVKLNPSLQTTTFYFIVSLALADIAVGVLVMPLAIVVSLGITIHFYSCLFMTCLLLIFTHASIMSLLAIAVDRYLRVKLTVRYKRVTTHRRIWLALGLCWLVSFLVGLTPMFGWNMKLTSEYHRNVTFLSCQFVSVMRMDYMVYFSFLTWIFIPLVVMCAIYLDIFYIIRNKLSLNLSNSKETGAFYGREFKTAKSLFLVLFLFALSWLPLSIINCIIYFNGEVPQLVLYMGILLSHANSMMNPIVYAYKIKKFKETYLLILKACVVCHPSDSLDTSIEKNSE
The assay can be described thus: Agonist activity against adenosine receptor subtypes, CHO cells with cAMP response element/SPAP reporter (forskolin-enhanced cAMP). The conditions noted are these: ratio to EC50 of NECA; transfected CHO cells; effect on forskolin-enhanced cAMP via SPAP. The method in brief:
(§1)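 Human adenosine receptor-transfected CHO cells carrying a cAMP response element–SPAP reporter; agonism read as SPAP change from basal cAMP for A2a, or from forskolin-enhanced cAMP for A1 and A3. EC50 expressed as ratio to that of NECA, a non-selective agonist.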

The next assay addresses T2, adenosine 1 (Homo sapiens, UniProt P30542).
T2 sequence (P30542 1-326): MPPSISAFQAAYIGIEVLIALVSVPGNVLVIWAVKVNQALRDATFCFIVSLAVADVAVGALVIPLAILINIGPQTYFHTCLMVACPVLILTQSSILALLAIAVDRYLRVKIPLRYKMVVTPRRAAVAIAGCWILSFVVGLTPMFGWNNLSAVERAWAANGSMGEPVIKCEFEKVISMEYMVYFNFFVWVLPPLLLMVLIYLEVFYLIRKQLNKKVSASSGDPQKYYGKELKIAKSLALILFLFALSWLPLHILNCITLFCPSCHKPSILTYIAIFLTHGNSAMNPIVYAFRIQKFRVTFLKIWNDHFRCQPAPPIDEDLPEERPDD
Described as above. The settings on record: ratio to EC50 of NECA; transfected CHO cells; effect on forskolin-enhanced cAMP via SPAP. The method in brief: as §1

In a further assay the target is adenosine 2a (Homo sapiens, UniProt P29274). Description: Agonist activity against adenosine receptor subtypes, CHO cells with cAMP response element/SPAP reporter (basal cAMP). The settings on record: ratio to EC50 of NECA; transfected CHO cells; effect on basal cAMP via SPAP. In outline: as §1
Sequence of adenosine 2a (P29274 whole entry): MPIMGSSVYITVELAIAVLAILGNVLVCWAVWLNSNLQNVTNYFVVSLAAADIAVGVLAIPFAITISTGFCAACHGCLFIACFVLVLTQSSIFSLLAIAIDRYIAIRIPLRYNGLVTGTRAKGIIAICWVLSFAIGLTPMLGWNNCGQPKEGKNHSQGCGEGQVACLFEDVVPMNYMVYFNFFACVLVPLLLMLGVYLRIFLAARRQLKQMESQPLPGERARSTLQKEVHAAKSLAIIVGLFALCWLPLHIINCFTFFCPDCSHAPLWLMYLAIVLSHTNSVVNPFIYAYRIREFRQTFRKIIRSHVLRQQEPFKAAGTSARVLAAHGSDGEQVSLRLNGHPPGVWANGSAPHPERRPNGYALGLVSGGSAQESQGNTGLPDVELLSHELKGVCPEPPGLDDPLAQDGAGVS

In the case of `CCC(CC)Nc1nc(NC2CCCC2)nc2c1ncn2[C@@H]1O[C@H](c2nnc(C3CC3)o2)[C@@H](O)[C@H]1O.O=CO.O=CO` [Example 39, (2R,3R,4S,5S)-2-[2-Cyclopentylamino-6-(1-ethyl-propylamino)-purin-9-yl]-5-(5-cyclopropyl-[1,3,4]oxadiazol-2-yl)-tetrahydro-furan-3,4-diol diformate], on adenosine 3, the “A3 (EC50 values as a ratio of that of NECA)” value is greater than 173. In addition, the “A1 (EC50 values as a ratio of that of NECA)” value at adenosine 1 is “>=1067”. In addition, the “A2a (EC50 values as a ratio of that of NECA)” value at adenosine 2a came to 129.5.

For the compound `CCC(CC)Nc1nc(N[C@@H]2CCNC2)nc2c1ncn2[C@@H]1O[C@H](c2nnc(C3CC3)o2)[C@@H](O)[C@H]1O.O=CO.O=CO` [Example 40, (2S,3S,4R,5R)-2-(5-Cyclopropyl-[1,3,4]oxadiazol-2-yl)-5-[6-(1-ethyl-propylamino)-2-(pyrrolidin-3R-ylamino)-purin-9-yl]-tetrahydro-furan-3,4-diol diformate], on adenosine 3, the “A3 (EC50 values as a ratio of that of NECA)” value is reported as greater than 173. For the same compound, the “A1 (EC50 values as a ratio of that of NECA)” value on adenosine 1 worked out at 5084.2. For the same compound, the “A2a (EC50 values as a ratio of that of NECA)” value on adenosine 2a amounted to 56.86.

Turning to `CCC(CC)Nc1nc(NCCC2CCCCC2)nc2c1ncn2C1OC(c2nnc(C3CC3)o2)C(O)C1O.O=CO.O=CO` [Example 41, (2R,3R,4S,5S)-2-[2-(2-Cyclohexyl-ethylamino)-6-(1-ethyl-propylamino)-purin-9-yl]-5-(5-cyclopropyl-[1,3,4]oxadiazol-2-yl)-tetrahydro-furan-3,4-diol diformate], the “A3 (EC50 values as a ratio of that of NECA)” value on adenosine 3 is greater than 249. Besides, at adenosine 1, the “A1 (EC50 values as a ratio of that of NECA)” value was determined as 1921.5. Further, at adenosine 2a, the “A2a (EC50 values as a ratio of that of NECA)” value turned out to be 74.29.

On to `CCC(CC)Nc1nc(N[C@H](CO)C(C)C)nc2c1ncn2[C@@H]1O[C@H](c2nnc(C3CC3)o2)[C@@H](O)[C@H]1O.O=CO` [Example 42, (2R,3R,4S,5S)-2-[6-(1-Ethyl-propylamino)-2-(1S-hydroxymethyl-2-methyl-propylamino)-purin-9-yl]-5-(5-cyclopropyl-[1,3,4]oxadiazol-2-yl)-tetrahydro-furan-3,4-diol formate], for which, at adenosine 3, the “A3 (EC50 values as a ratio of that of NECA)” value is on record as greater than 87. Moreover, on adenosine 1, the “A1 (EC50 values as a ratio of that of NECA)” value is 306.9. Besides, the “A2a (EC50 values as a ratio of that of NECA)” value on adenosine 2a was 41.04.

For the compound `CCc1cc([C@H]2O[C@@H](n3cnc4c(NC(CC)CC)nc(NCCN5CCCCC5)nc43)[C@H](O)[C@@H]2O)no1.O=CO.O=CO` [Example 43, (2R,3R,4S,5R)-2-[6-(1-Ethyl-propylamino)-2-(2-piperidin-1-yl-ethylamino)-purin-9-yl]-5-(5-ethylisoxazol-3-yl)tetrahydrofuran-3,4-diol diformate], the “A3 (EC50 values as a ratio of that of NECA)” value on adenosine 3 is given as greater than 1124. At adenosine 1, the “A1 (EC50 values as a ratio of that of NECA)” value turned out to be 21.82. At adenosine 2a, the “A2a (EC50 values as a ratio of that of NECA)” value was 3.25.

Turning to “(2R,3R,4S,5R)-2-[6-(2,2-Diphenyl-ethylamino)-2-(1R-hydroxy-2-phenyl-ethylamino)-purin-9-yl]-5-(1-ethyl-1H-[1,2,4]triazol-3-yl)-tetrahydro-furan-3,4-diol formate [Example 35]”, on adenosine 3, the “A3 (EC50 values as a ratio of that of NECA)” value is listed as greater than 240. The “A1 (EC50 values as a ratio of that of NECA)” value at adenosine 1 turned out to be 5261.1. For the same compound, the “A2a (EC50 values as a ratio of that of NECA)” value at adenosine 2a was 6.33.

“(2R,3R,4S,5S)-2-[6-(2,2-Diphenyl-ethylamino)-2-(2-piperidin-1-yl-ethylamino)-purin-9-yl]-5-[5-methyl-[1,3,4]thiadiazol-2-yl)-tetrahydro-furan-3,4-diol diformate [Example 28]”: the “A3 (EC50 values as a ratio of that of NECA)” value at adenosine 3 is reported as greater than 245. Moreover, the “A1 (EC50 values as a ratio of that of NECA)” value at adenosine 1 is on record as 3371. The “A2a (EC50 values as a ratio of that of NECA)” value on adenosine 2a is listed as 37.3.

For the origin of these results see patent EP1090023B1 (GLAXO GROUP LIMITED, priority 1998, dated 1999).
